According to publication PMC11195807, “Development of a multi-targeted chemotherapeutic approach based on G-quadruplex stabilisation and carbonic anhydrase inhibition” (Journal of Enzyme Inhibition and Medicinal Chemistry, 2024):

test system: GQ structures; test: BG4 immunofluorescence of GQ foci, HeLa cells in normoxia; format: cell-based; conditions: 24 h, 35.0 µM S-4,0, 40.0 µM C-4,2, 37.5 µM C-5,2, 2 µM RHPS4, over DMSO
Excerpt: After measuring the viability of HeLa cells upon treatment with the newly synthesised MTDLs mentioned above, we probed the capability of the three most cytotoxic ones (S-4,0, C-4,2, and C-5,2) to affect the formation of GQ structures by immunofluorescence (IF) microscopy, using the BG4 antibody that selectively recognises the GQ structures. As it can be noticed in Figure 6, the fluorescence intensity of the total number of GQ foci increased by around 30% after treatment with both the coumarin derivative C-4,2 and the reference GQ binder RHPS4, whereas it was not affected by S-4,0 and C-5,2. […] On the contrary, the levels of GQ structures were influenced neither by the treatment with the sulphonamide S-4,0 nor by the coumarin C-5,2, despite their ability to thermally stabilise some GQ-forming sequences in vitro.
Figure 6. (A) Representative fields showing G4 foci formation detected by immunofluorescence in HeLa cells treated for 24 h with 35.0 µM S-4,0, 40.0 µM C-4,2, and 37.5 µM C-5,2 or an equivalent amount of vehicle (0.1% DMSO). As a positive control, cells were treated with 2 µM RHPS4 (a well-established GQ ligand)[68] for 24 h. Scale bar: 10 µm. Upper panels: the merged channels of BG4-stained GQ structures (magenta) and Hoechst-counterstained nuclei (grey) are reported. Lower panels: enlargements from the pictures in the upper panels. (B) Quantitative analysis of the fluorescence intensity of the total number of GQ foci. An average of 50 cells were screened for each condition and the results are expressed as a fold change of fluorescence intensity (anti-GQ signal) over the negative control (DMSO). Histograms show the mean ± SD of three independent experiments. The statistical significance was calculated using a one-way ANOVA test on GraphPad Prism 8.0.2 (ns: not significant, **: p < 0.01).
For the IF experiments in the presence of normal oxygen levels, HeLa cells were seeded on sterile coverslips, in a 24-well plate, at a density of 90,000 cells per well, and incubated overnight. Then, cells were treated with a sublethal concentration of each investigated MTDL or an equivalent amount of vehicle (0.1% DMSO), for 24 h. As positive control, cells were exposed for 24 h to 2 µM RHPS4. As regards the IF experiments under hypoxic conditions, HeLa were seeded on sterile coverslips, in a 24-well plate, at a density of 50,000 cells per well, and incubated overnight. […] From there, the cellular and nuclear foci were segmented, and their number or fluorescence intensity was quantified by using the Image Analysis package of ZEISS ZEN 3.1 software.

Row | Structure (SMILES) | increase of fluorescence intensity of the total number of GQ foci
1 | COc1ccc2cc3[n+](cc2c1OCCCCn1cc(-c2ccc(S(N)(=O)=O)cc2)nn1)CCc1cc2c(cc1-3)OCO2 [Compound 30, 10-Methoxy-9–(4–(4-(4-sulfamoylphenyl)-1H-1,2,3-triazol-1-yl)butoxy)-5,6-dihydro-[1,3]dioxolo[4,5-g]isoquinolino[3,2-a]isoquinolin-7-ium hexafluorophosphate] | not affected
2 | COc1ccc2cc3[n+](cc2c1OCCCCn1cc(COc2ccc4ccc(=O)oc4c2)nn1)CCc1cc2c(cc1-3)OCO2 [Compound 37, 10-Methoxy-9–(4-(4-(((2-oxo-2H-chromen-7-yl)oxy)methyl)-1H-1,2,3-triazol-1-yl)butoxy)-5,6-dihydro-[1,3]dioxolo[4,5-g]isoquinolino[3,2-a]isoquinolin-7-ium hexafluorophosphate] | around 30%
3 | COc1ccc2cc3[n+](cc2c1OCCCCCn1cc(COc2ccc4ccc(=O)oc4c2)nn1)CCc1cc2c(cc1-3)OCO2 [Compound 39, 10-Methoxy-9-((5–(4-(((2-oxo-2H-chromen-7-yl)oxy)methyl)-1H-1,2,3-triazol-1-yl)pentyl)oxy)-5,6-dihydro-[1,3]dioxolo[4,5-g]isoquinolino[3,2-a]isoquinolin-7-ium hexafluorophosphate] | not affected
